Reference: US20120121691A1, “Method for Increasing the Production of a Specific ACYL-Chain Dihydroceramide(s) for Improving the Effectiveness of Cancer Treatments” (priority 2010, published 2012)

Experiments:
[1] = tested on: MCF-7 breast cancer cells; assay: DIMSCAN cytotoxicity assay, MCF-7; type: cell-based; conditions: MCF-7, fatty acid 5 micromolar
Excerpt: (§1) Cell culture. The pre-T acute lymphoblastic leukemia cell lines MOLT-4 and CCRF-CEM, small cell lung cancer cell line NCI-H146, non-small cell lung cancer cell line NCI-H1792, colon cancer cell lines LoVo and HT-29, and breast cancer cell line MCF-7, were purchased from American Type Culture Collection, Manassas, Va., and grown at 20%/5% and 5%/5%, respectively. COG-LL-317 and COG-LL-332 pre-T acute lymphoblastic leukemia cell lines were obtained from the TTUHSC Cancer Center Cell Repository and grown at 5%/5%. Cell line identities were verified by short tandem repeat analysis and mycoplasma testing was performed. Cell lines were maintained in RPMI-1640 medium supplemented with 10% fetal bovine serum (FBS, Invitrogen) in humidified, 37° C. incubators. For all experiments, ALL cell lines were seeded at 2. cells/mL in RPMI-1640 medium supplemented with 15% fetal bovine serum. Solid tumor cell lines were plated at 5×cells/mL in RPMI-1640 medium supplemented with 10% fetal bovine serum.
(§2) Cytotoxicity Assay. Cytoxicity is determined using the DIMSCAN assay system (R. Proffitt et al., Cytometry 24, 204-213 (1996); T. Frgala et al., Proc. AACR, 36, 303 (1995). The system employs digital imaging microscopy to quantify viable cells, which selectively accumulate fluorescein diacetate to become brightly fluorescent. The system is capable of measuring cytotoxicity over a 4-5 log dynamic range by quenching the residual fluorescence of dead and dying cells with eosin Y and quantifying the total fluorescence of viable cells using digital thresholding. Measured fluorescence is directly proportionate to the number of viable cells. A comparison of the total fluorescence of a drug-treated cell population to the fluorescence of a similar number of untreated cells yields a survival fraction.
(§3) In brief, 5,000 to 25,000 cells/well depending on the cell line (5,000 for solid tumor, 25,000 for ALL cell lines) were replicate plated into 60 wells of a 96-well tissue culture plate in 0.1 cc media and allowed to attach or recover overnight. […]

[2] = tested on: NCI-H1792 non-small cell lung cancer cells; assay: DIMSCAN cytotoxicity assay, NCI-H1792; type: cell-based; conditions: NCI-H1792, fatty acid 5 micromolar
Excerpt: as §1, §2, §3

[3] = tested on: NCI-H146 small cell lung cancer cells; assay: DIMSCAN cytotoxicity assay, NCI-H146; type: cell-based, human; conditions: NCI-H146, fatty acid 5 micromolar
Excerpt: as §1
as §2, with “cells.” for “cells. A comparison of the total fluorescence of a drug-treated cell population to the fluorescence of a similar number of untreated cells yields a survival fraction.”
(§4) In brief, 5,000 to 25,000 cells/well depending on the cell line (5,000 for solid tumor, 25,000 for ALL cell lines) were replicate plated into 60 wells of a 96-well tissue culture plate in 0.1 cc media and allowed to attach or recover overnight. Drug(s) are then added in 0.05 cc media to the final concentrations indicated. […] Total fluorescence of viable cells is then measured by digital imaging microscopy and the signal normalized to control cells. […]

LoVo colon cancer cells = assay: DIMSCAN cytotoxicity assay, LoVo; type: cell-based, human; conditions: fatty acid 5 micromolar
Excerpt: as §1
as §2, with “cells.” for “cells. A comparison of the total fluorescence of a drug-treated cell population to the fluorescence of a similar number of untreated cells yields a survival fraction.”
as §4

[4] = tested on: intracellular sphingolipids, CCRF-CEM cells; assay: LC/MS/MS analysis of intracellular sphingolipids, CCRF-CEM; type: cell-based, human; conditions: for increase in corresponding dihydroceramide over sphinganine plus GT-11 alone: fatty acid in addition to sphinganine plus GT-11, six hours, P<0.05
Procedure: LC/MS/MS analysis of intracellular sphingolipids. Sphingolipids were separated using an Agilent 1200 HPLC (LC) and determined by ESI/MS/MS performed on a AB SCIEX 4000 QTRAP Hybrid Triple Quadrupole/Linear Ion Trap mass spectrometer (MS), operating in a multiple reaction monitoring positive ionization mode as described previously with moderate modifications (25). Briefly, 50 μL of a solution (1 μM) of internal sphingolipid standards (including -sphingosine, -sphinganine, -sphingosine-1-phosphate, and -ceramide) was added to each cell pellet sample. Lipids of each sample were extracted twice with 2 mL of the ethyl acetate/isopropyl alcohol/water (60:28:12; v:v) solvent system. Supernatants were transferred to glass tubes (Kimble Chase) and evaporated under air (10 PSI) at 40° C. After reconstitution in methanol (4 mL), 1 ml of each sample was separated for the determination of lipid phosphate. Remaining sample (3 mL) was dried and used for sphingolipid quantification. For ESI/MS/MS, the dried lipid sample was dissolved in mobile phase A. Samples were injected (10 μL) and separated on a Spectra C8SR, 150×3.0 mm, 3-μm particle size column using gradient-elution (mobile phase A/B, prepared as previously described).
Data acquisition, peak integration and analyte quantitation were performed using ABI/SCIEX Analyst 1.4.2 Software. Sphingolipid data were normalized to lipid phosphate as previously described (26). Briefly, samples were dried under air (10 PSI) and lipids were extracted using the method of Bligh and Dyer (27). Of importance for phosphate assay, only Kimble Chase disposable borosilicate tubes were used for minimal sample contamination. Organic phase was transferred to glass tubes and a known volume was separated to a new tube and dried at 80° C. Phosphate standards and dried samples were then heated with ashing buffer (water:10 N:70% [40:9:1]) at 160° C. overnight. Samples were then incubated with ammonium molybdate and ascorbic acid as previously described, and absorbance ([…]) was read using a SpectraMax.
CCRF-CEM cells were treated with drug/fatty acid vehicles (control), GT-11 (0.5 μM) alone, sphinganine (4 μM) alone or sphinganine (4 μM) plus GT-11 (0.5 μM) for six hours and subsequently prepared for sphingolipid analysis.
CCRF-CEM cells were treated with GT-11 (0.5 μM) alone, sphinganine (1 μM) alone or sphinganine (1 μM) plus GT-11 (0.5 μM) for six hours and prepared for quantitative analysis. DHCers were normalized to control and plotted as fold change (bar, z-axis). * indicates significance, with P<0.05. […] CCRF-CEM cells were treated with sphinganine (1 μM) plus GT-11 (0.5 μM) with and without specific solubilized fatty acids (carbon chain length (CX) and saturation (:X), Ex: C20:1=fatty acid with 20 carbons and one desaturation) for six hours and prepared for quantitative sphingolipid analysis. Dihydroceramides were normalized to control cells that received sphinganine plus GT-11 with no fatty acid and plotted as fold change (bar, z-axis). * indicates significance, with P<0.05.

COG-LL-332 = assay: DIMSCAN cytotoxicity assay, COG-LL-332; type: cell-based; conditions: COG-LL-332, sphinganine 1 μM, GT-11 0.5 μM, 48 hours
Excerpt: as §1
as §2, with “fraction. […]” for “fraction.”
(§5) The addition of C22:0-fatty acid, but not C18:0 or C22:1 fatty acids, increased cytotoxicity (FIGS. 7A-7F). […] Cytotoxicity was measured using DIMSCAN, and data was normalized to control and plotted as survival fraction (y-axis). […]

[5] = tested on: pre-T acute lymphoblastic leukemia cell lines CCRF-CEM, MOLT-4, COG-LL-317 and COG-LL-332; assay: DIMSCAN cytotoxicity assay across the four pre-T ALL cell lines; type: cell-based, human; conditions: COG-LL-317, COG-LL-332, CCRF-CEM, 4-HPR 0-9 μM, 48 hours
Excerpt: as §1, with “For all experiments, ALL cell lines were seeded at 2. cells/mL in RPMI-1640 medium supplemented with 15% fetal bovine serum. Solid tumor cell lines were plated at 5×cells/mL in RPMI-1640 medium supplemented with 10% fetal bovine serum.” left out
as §2, with “A comparison of the total fluorescence of a drug-treated cell population to the fluorescence of a similar number of untreated cells yields a survival fraction.” left out

MOLT-4 ALL cells = assay: DIMSCAN cytotoxicity assay, MOLT-4; type: cell-based, human; conditions: MOLT-4, sphinganine 1 μM, GT-11 0.5 μM, 48 hours
Excerpt: as §1
as §2, with “fraction. […]” for “fraction.”
as §5

COG-LL-317 = assay: DIMSCAN cytotoxicity assay, COG-LL-317; type: cell-based; conditions: COG-LL-317, sphinganine 1 μM, GT-11 0.5 μM, 48 hours
Excerpt: as §1
as §2, with “fraction. […]” for “fraction.”
as §5

CCRF-CEM = tested on: CCRF-CEM
Procedure: Statistical analyses. Descriptive statistics and significance testing were performed using Microsoft Excel. The Excel function “t.test” was used for Student's T-testing (two-tailed, type-2). Propagated standard deviations were calculated using standard methods. Correlation analyses were performed using Sigmaplot 11 software. […]
Due to the confounding effect of in vitro fatty acid conversion, correlation analyses were used to identify significant relationships between absolute levels of specific sphingolipids and cytotoxicity. […]

`CCCCCCCCCCCCCCCCCCCCCCCC(=O)O` [C24:0-fatty acid] was tested, and the “effect of fatty acid on fenretinide cytotoxicity” value [1] was “did not increase cytotoxicity”, the “effect of fatty acid on fenretinide cytotoxicity” value [2] was “did not increase cytotoxicity” and the “effect of fatty acid on fenretinide cytotoxicity” value [3] was “did not increase cytotoxicity”. The “effect of fatty acid on fenretinide cytotoxicity” value (LoVo colon cancer cells) was “did not increase cytotoxicity” and the “increase in corresponding dihydroceramide over sphinganine plus GT-11 alone” value [4] was “significant increases”.
With `CCCCCCCCCCCCCCCCCC(=O)O` [C18:0-fatty acid] the “effect of fatty acid co-treatment on cytotoxicity of sphinganine with GT-11” value (“effect of fatty acid co-treatment” for short) (COG-LL-332) was “not”, the “effect of fatty acid on fenretinide cytotoxicity” value [1] was “did not increase cytotoxicity” and the “effect of fatty acid on fenretinide cytotoxicity” value [2] was “did not increase cytotoxicity”. The “effect of fatty acid on fenretinide (4-HPR) cytotoxicity” value [5] was “not”, the “effect of fatty acid on fenretinide cytotoxicity” value [3] was “did not increase cytotoxicity” and the “effect of fatty acid co-treatment” value (MOLT-4 ALL cells) was “not”. For the same compound, the “effect of fatty acid on fenretinide cytotoxicity” value (LoVo colon cancer cells) was “did not increase cytotoxicity” and the “effect of fatty acid co-treatment” value (COG-LL-317) was “not”.
`CCCCCCCCCCCCCC(=O)O` [C14:0-fatty acid] was tested, and the “increase in corresponding dihydroceramide over sphinganine plus GT-11 alone” value [4] was “significant increases”.
With `CCCCCCCCCCCCCCC[C@@H](O)[C@@H](N)CO` [Sphinganine, (2S,3R)-2-aminooctadecane-1,3-diol, reference compound] the “Pearson Coef. (r), sphingolipid level vs cytotoxicity” value (CCRF-CEM) was −0.21, the “Spearman Coef. (ρ), sphingolipid level vs cytotoxicity” value (CCRF-CEM) was −0.30 and the “increase of total ceramide” value ([4]; sphinganine 4 μM alone, six hours, normalized to control, P<0.001) was 1.5 fold.
In the case of `CCCCCCCC/C=C\CCCCCCCCCCCCCC(=O)O` [C24:1-fatty acid], the “increase in corresponding dihydroceramide over sphinganine plus GT-11 alone” value [4] is reported as “significant increases”.
In the case of `CCCCCCCCCCCCCCCC(=O)O` [C16:0-fatty acid], the “increase in corresponding dihydroceramide over sphinganine plus GT-11 alone” value [4] is reported as “significant increases”.
For `CCCCCCCCCCCCCCCCCCCC(=O)O` [C20:0-fatty acid], the “increase in C22:0-DHCer over sphinganine plus GT-11 alone” value ([4]; fatty acid 5 μM in addition to sphinganine 1 μM plus GT-11 0.5 μM, six hours, P<0.001) was 12 fold and the “increase in corresponding dihydroceramide over sphinganine plus GT-11 alone” value [4] was “significant increases”.
